On the set-up of data set [1]: species or system CF1 mice. To be noted: in vivo; for HL_Lambda_z: CF1, mouse. An excerpt:
FIGS. 1A and 1B depict data of pharmacokinetic studies in CF1 mice with respect to administration of the API in the formulation shown in the Figures and via the route of administration shown in the Figures. […] In FIG. 1A group/dose=Group IV_IV_40; Rsq=0.9297; Rsq_adjusted=0.9062; HL_Lambda_z=4.7397 (hr); (5 points used in calculation); Uniform Weighting. […] In FIG. 1B group/dose=Group V_PO_40; Rsq=0.693; Rsq_adjusted=0.6163; HL_Lambda_z=2.0556 (hr); (6 points used in calculation); Uniform Weighting.
FIGS. 2A and 2B depict data of pharmacokinetic studies in CF1 mice with respect to administration of the API in the formulation shown in the Figures and via the route of administration shown in the Figures. […] In FIG. 2A dose/route=Group III_PO_150; Rsq=0.9685; Rsq_adjusted=0.9528; HL_Lambda_z=4.2505 (hr); (4 points used in calculation); Uniform Weighting. […] In FIG. 2B dose/route=Group VI_PO_400; Rsq=0.9971; Rsq_adjusted=0.9957; HL_Lambda_z=1.9461 (hr); (4 points used in calculation); Uniform Weighting.
Pharmacokinetics and bioavailability data was obtained from animal studies for a 50% PEG 400 plus 10% EtOH plus PBS formulation (Groups 1, 2 & 3) and a 40% PEG 400 plus 5% EtOH plus 18% TPGS plus PBS formulation (Groups 4, 5 & 6) and are shown below in Table 2.
The API was administered to CF1 mice. Blood was drawn from the mice at predetermined time intervals. Plasma was isolated from the blood and analyzed using LCMS to determine amounts of API (ng/mL). The data shown in FIG. 1A was obtained for IV administration of 40 mg/kg of API in a formulation containing 40% PEG400, 5% EtOH and 18% TPGS (d-alpha tocopheryl PEG1000 succinate). The data shown in FIG. 1B was obtained for PO administration of 40 mg/kg of API in a formulation containing 40% PEG400, 5% EtOH and 18% TPGS (d-alpha tocopheryl PEG1000 succinate). The data shown in FIG. 2A was obtained for PO administration of 150 mg/kg of API in a formulation containing 50% PEG400 and 10% EtOH. The data shown in FIG. 2B was obtained for PO administration of 400 mg/kg of API in a formulation containing 40% PEG400, 5% EtOH and 18% TPGS (d-alpha tocopheryl PEG1000 succinate). Time 0 in FIGS. 1A, 1B, 2A and 2B represent the time of administration of the API.

The next data set relates to TC71 Luc cells. The experiment in a line: TC71Luc Ewing's sarcoma xenograft murine model. It counts as in vivo, mice. As to conditions: continuous and prolonged API administration. An excerpt:
FIG. 3 (Smooth of Grouped-TC71 Luc Xenograft Animal Model) depicts data obtained from a TC71 Luc Ewing's sarcoma xenograft murine model for mice treated with the API in an EtOH (5%), PEG400 (40%), PBS formulation. The x-axis is time post-administration of the API in days with 0 being the first day of administration of API. The y-axis is tumor volume in mm^3.
Using a TC71Luc Ewing's sarcoma xenograft murine model, mice were subcutaneously injected with 1 million TC71 Luc cells. At a predetermined tumor volume (time=0), mice were given the first administration of API in an EtOH (5%), PEG400 (40%), PBS formulation. FIG. 3 depicts data obtained from control and for administration once per week (1×), three times per week (3×) and five times per week (5×) in each case at a dosage of 1.2 mg per mouse.

For data set [2] the following is noted: unformulated compound, background statement; cited from earlier work.

Structures are written as SMILES. Like-named read-outs stand apart in the source and are kept apart here.

Consider `COc1ccc(C(=O)CC2(O)C(=O)Nc3c(Cl)ccc(Cl)c32)cc1` (stereo not shown) [compound of Formula I, 4,7-Dichloro-1,3-dihydro-3-hydroxy-3[2-(4-methoxyphenyl)-2-oxoethyl]-2H-indol-2-one], for which the HL_Lambda_z in data set [1] (iv, 40 mg/kg) turned out to be 4.7397 h; in data set [1] (po, 40 mg/kg), 2.0556 h; in data set [1] (po, 150 mg/kg), 4.2505 h; in data set [1] (po, 400 mg/kg), 1.9461 h. Besides, the “clearance rate from plasma” value in data set [1] (mouse) is listed as “rapid”. Moreover, the tumor abatement result in the data set with TC71 Luc cells is “increased tumor abatement”. Further, in data set [2], the solubility in water entry was “highly insoluble”.

The values are drawn from US20170165231A1, “TREATING EWING'S SARCOMA AND EWS-FLI1 RELATED DISORDERS” (STAR BIOTECHNOLOGY, LLC, priority 2012, published 2017).
